Assay results taken from patent US7700375B2, “Fluorescent labeling of specific protein targets in vitro and in vivo” (Valorisation-Recherche, LP, priority 2004, dated 2010).
Values after ≈ are worked out from the molar mass of the structure shown.

Tests used:
[1] = Fluorescence spectral properties of fluorogens and their ethanethiol adducts; type: physicochemical; conditions: 10:90 DMSO: water
Description: For the application of this fluorogenic reaction to the detection of thiols and dithiols, two important criteria are the fluorescence intensity of the thiol addition product and the ratio of its fluorescence compared to its parent fluorogen. We studied the effect of electron withdrawing and donating substituants on these criteria by preparing the derivatives of fluorogen 4 shown in Scheme 1. Fluorogen 5, bearing an electron withdrawing ester group, was prepared according to a protocol similar to that used for fluorogen 4, but using an ester-substituted maleic anhydride derived by oxidation of dimethyl L-tartrate according to a published procedure.^31 Fluorogen 6 bears an electron donating methyl group and was obtained in similar yield by adaptation of the standard literature protocol,^25 using citraconic anhydride. The reaction of 5 and 6 with ethanethiol in DMSO led to the formation of thiol adducts 8 and 9, whose fluorescence was characterized as shown in Table 1. Even from this small series, certain tendencies are apparent. Increasing the electron donating capacity of the substituent appears to have a significant effect on the absorbance maximum corresponding to the wavelength of excitation, increasing by 37 nm from 8 to 9. Although the emission wavelength increases very slightly over the same series, the net effect on the Stokes shift is a significant decrease with increasing electron donating capacity of the substituent.
(§1) Comparison of the fluorescent properties^34 of the four different parent fluorogens (and their corresponding thiol adducts) studied herein (see Table 2) substantiates our retention of compounds 13 and 20 as candidates for further tests with proteins.
The following material were obtained from Aldrich and were used without further purification: 2-hydroxy-5-nitrobenzaldehyde, N-acetylglycine, maleic anhydride, p-nitrophenylacetic acid, L-aspartic acid dimethyl ester hydrochloride, citraconic anhydride, dimethyl L-tartrate, dimethyl malonate. All reactions were carried out under an atmosphere of dry nitrogen employing conventional bench-top techniques except for reactions with thiols. ^13C-NMR and ^1H-NMR spectra were recorded on AMXR400 or AMX300 spectrometers and were referenced to the residual proton or ^13C signal of the solvent. Mass spectra were determined by FAB+ ionization on an AutoSpecQ spectrometer at the Regional Mass Spectrometry Centre at the Université de Montréal. Infrared spectra were recorded on a Perkin-Elmer (FTIR) spectrometer. Melting points (uncorrected) were determined on a Unimelt Tomas-Hoover or on a Gallenkamp meting point apparatus. Fluorescence spectra were recorded using a Varian Cary Eclipse fluorimeter and gel electrophoresis was carried out on a SpectraPhoresis 100 apparatus.

[2] = Solubility; type: physicochemical
Description: as §1
(§2) Finally, we wished to determine if fluorogens such as 13 and 20 were cytotoxic. […] Furthermore, even at 300 μM 20, the limit of its solubility in cell culture, 70% of COS cells were still viable (FIG. 8). […] The convenience of the application of this fluorescent labeling method is obvious from the low cytoxocity of 20, even at concentrations 30 times greater than those necessary for efficient labeling.

[3] = biological target: T1, mCys-Fos (Homo sapiens, UniProt P01100, C204S); experiment: Protein labeling in vitro, SDS-PAGE with UV illumination; type: biochemical; conditions: 0.242 mM protein, 0.5 mM of 20 or 0.05 mM of 13, 25° C. overnight
T1 construct: the C99S mutant of a fragment of Fos; His-tag (N); made in house; host or cells: XL1-blue E. coli
Description: (§3) As mentioned in the introduction, an α-helical protein was designed to bear two cysteine residues, separated by a distance complementary to that between the maleimide groups of the designated fluorogen. The protein chosen as a starting point for this design was the C99S mutant of a fragment of Fos,^21 a known α-helical protein^22 whose recombinant expression has been published.^23 Site-directed mutagenesis was then performed^20,35 to introduce a cysteine residue (L56C), separated by two turns of the α-helical motif from the native Cys49, positioning the protein's only two thiol groups approximately 10 Å apart.^36 Although at higher concentrations, Fos is known to form a homodimer,^22 the distance between the intermolecular cysteine residues in this putative homodimer would render their reaction with a single fluorogen molecule impossible. […]
(§4) Purified mCys-Fos and diCys-Fos were then tested in vitro for their ability to react with fluorogens 13 and 20. After incubation of 0.242 mM protein with 0.5 mM of 20 or 0.05 mM of 13 at 25° C. overnight, glycerol was added and the reaction mixtures were analyzed by SDS-PAGE using UV illumination and then Coomassie blue staining. […]

[4] = biological target: T2, diCys-Fos (Homo sapiens, UniProt P01100, C204S/L161C); experiment: Labeling in lysate of E. coli cells expressing diCys-Fos, SDS-PAGE; type: biochemical; conditions: overnight at 25° C.
Description: The specificity of the dithiol addition reaction of 20 with diCys-Fos in the presence of other proteins was also confirmed through a simple in vitro experiment. The lysate of E. coli cells expressing diCys-Fos was allowed to react with 20 overnight at 25° C. prior to analysis by SDS-PAGE.

[5] = tested on: COS cells; experiment: Cytotoxicity, MTT and PI assays; type: cell-based
Description: as §2

[6] = biological target: T2, diCys-Fos; experiment: Protein labeling in vitro, SDS-PAGE with UV illumination; type: biochemical; parameters: the C99S mutant of a fragment of Fos; conditions: 0.242 mM protein, 0.5 mM of 20 or 0.05 mM of 13, 25° C. overnight
Description: as §3, §4

[7] = biological target: T2, diCys-Fos; experiment: Protein labeling in living COS cells expressing diCys-Fos fused to RBD of Raf; type: cell-based; parameters: the C99S mutant of a fragment of Fos; expressed in transfected cells; host or cells: COS cells
Description: The ultimate proof of principle for this method is its successful application to labeling a specific protein in living eukaryotic cells. To test for this potential, our diCys-Fos probe protein was genetically fused to RBD, the Ras-binding domain of Raf, and COS cells were then transfected with the expression plasmid for this fusion protein. A solution of 20 was then added to cultures of COS cells expressing diCys-Fos as well as mock COS cells transfected with an empty expression plasmid.

T2 sequence (P01100 118-211 L161C/C204S limits assumed): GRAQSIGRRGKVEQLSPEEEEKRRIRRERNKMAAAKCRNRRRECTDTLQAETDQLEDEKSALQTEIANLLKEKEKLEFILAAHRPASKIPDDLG
T1 sequence (P01100 118-211 C204S limits assumed): as the sequence (P01100 118-211 L161C/C204S limits assumed) above, with C44L counted along it

Stokes shift [1]: 67 nm
λem (emission band) [1]: 525-650 nm
λem, wavelength corresponding to center of Full Width at Half Maximum of emission band [1]: 578 nm
λexc [1]: 511 nm
IF Ratio ([1]; ratio of areas under emission bands of fluorogen and thiol adduct): 8.5
solubility ([2]; cell culture, plasma or biological fluid, read-out: limit of solubility in cell culture): 300 µM (≈ 159 µg/mL)
fluorescent labeling of mCys-Fos [3]: is not
fluorescent labeling of diCys-Fos [6]: efficiently fluorescently labeled
fluorescence of COS cells expressing diCys-Fos vs mock COS cells ([7]; 10 μM, 20 minutes, room temperature): significant difference in fluorescence
cell permeability ([7]; COS cells): confirming the cell permeability
Structure (SMILES): COC(=O)C[C@@H](C(=O)OC)N1C(=O)c2cc(N3C(=O)C=CC3=O)cc3cc(N4C(=O)C=CC4=O)cc(c23)C1=O [Compound 20, N-(3,6-Dimaleimidyl-1,8-naphthalyl)-L-aspartic acid dimethyl ester]
solubility in water / aqueous DMSO [2]: soluble in aqueous solutions containing as little as 5% DMSO
selectivity for diCys-Fos in the presence of other cytosolic proteins [4]: selectivity of 20 for its designated target protein
viable COS cells ([5]; 300 μM): 70%
concentration with low cytotoxicity relative to that necessary for efficient labeling ([5]; COS cells): 30 times
percentage of viable COS cells ([5]; concentrations of up to 30 μM): unaffected
